Laboratory results taken from PubChem BioAssay AID248 (DTP/NCI, 2004).
Values joined by “and” are separate entries in the source; they are usually repeats but may differ in a detail not shown here. Identical values can stand only once. Inconclusive results and toxic doses are left out. Rule as the data show it: active = T/C of 150% or more; inactive = T/C below 125%.

Test system: L1210 leukemia ip in BDF1 mice, survival T/C
Assay: NCI In Vivo Anticancer Drug Screen. Data for tumor model L1210 Leukemia (intraperitoneal) in B6D2F1 (BDF1) mice
Conditions: endpoint: mean survival time, higher = longer survival
Method in brief: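 Mice bearing the transplanted tumor received compound or vehicle. Survival of the treated group was divided by that of the vehicle-treated control group to give the ratio.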

Measured: T/C

O=c1cnn(C2OC(CO)C(O)C2O)c(=O)[nH]1 (stereo not drawn)
inactive: dose: 25.0 mg/kg/injection, schedule: Q01DX Z (ip), vehicle: methylcellulose (MC) 120 % of control | dose: 50.0 mg/kg/injection, schedule: Q01DX010 (ip), vehicle: saline 120 % of control | dose: 50.0 mg/kg/injection, schedule: Q01DX Z (ip), vehicle: methylcellulose (MC) 120 % of control | dose: 75.0 mg/kg/injection, schedule: Q01DX005 (ip), vehicle: saline 112 % of control | dose: 88.0 mg/kg/injection, schedule: Q01DX Z (ip), vehicle: methylcellulose (MC) 122 % of control | dose: 100.0 mg/kg/injection, schedule: Q01DX010 (ip), vehicle: saline 123 % of control | dose: 100.0 mg/kg/injection, schedule: Q01DX Z (ip), vehicle: methylcellulose (MC) 116 % of control | dose: 128.0 mg/kg/injection, schedule: Q03HX016 (oral), vehicle: saline 116 % of control | dose: 132.0 mg/kg/injection, schedule: Q01DX Z (ip), vehicle: methylcellulose (MC) 117 % of control | dose: 150.0 mg/kg/injection, schedule: Q01DX005 (ip), vehicle: saline 115 % of control | dose: 150.0 mg/kg/injection, schedule: Q## X003 (ip), vehicle: saline 105 % of control | dose: 152.0 mg/kg/injection, schedule: Q## X024 (ip), vehicle: saline 123 % of control | dose: 180.0 mg/kg/injection, schedule: Q01DX009 (ip), vehicle: saline 120 % of control | dose: 300.0 mg/kg/injection, schedule: Q01DX005 (ip), vehicle: saline 118 % of control | dose: 300.0 mg/kg/injection, schedule: Q01DX009 (oral), vehicle: saline 123 % of control | dose: 300.0 mg/kg/injection, schedule: Q03DX Z (ip), vehicle: other 119 % of control | dose: 300.0 mg/kg/injection, schedule: Q## X003 (ip), vehicle: saline 106 % of control | dose: 350.0 mg/kg/injection, schedule: Q01DX001 (ip), vehicle: saline 109 % of control | dose: 350.0 mg/kg/injection, schedule: Q07DX Z (ip), vehicle: saline 109 % of control | dose: 600.0 mg/kg/injection, schedule: Q01DX001 (ip), vehicle: saline 101 % of control | dose: 600.0 mg/kg/injection, schedule: Q01DX001 (oral), vehicle: saline 109 % of control | dose: 600.0 mg/kg/injection, schedule: Q01DX001 (sc), vehicle: saline 106 % of control | dose: 600.0 mg/kg/injection, schedule: Q01DX005 (ip), vehicle: saline 121 % of control | dose: 600.0 mg/kg/injection, schedule: Q01DX009 (oral), vehicle: saline 118 % of control | dose: 600.0 mg/kg/injection, schedule: Q## X002 (ip), vehicle: saline 98 % of control | dose: 600.0 mg/kg/injection, schedule: Q## X003 (ip), vehicle: saline 107 % of control | dose: 600.0 mg/kg/injection, schedule: Q## X008 (ip), vehicle: saline 119 % of control | dose: 600.0 mg/kg/injection, schedule: Q## X016 (ip), vehicle: saline 117 % of control | dose: 700.0 mg/kg/injection, schedule: Q01DX001 (ip), vehicle: saline 113 % of control and 116 % of control | dose: 700.0 mg/kg/injection, schedule: Q07DX Z (ip), vehicle: other 111 % of control | dose: 700.0 mg/kg/injection, schedule: Q07DX Z (ip), vehicle: saline 113 % of control | dose: 800.0 mg/kg/injection, schedule: Q01DX009 (ip), vehicle: saline 110 % of control | dose: 800.0 mg/kg/injection, schedule: Q## X000 (other), vehicle: other 107 % of control | dose: 800.0 mg/kg/injection, schedule: Q#A X Z (ip), vehicle: saline 101 % of control | dose: 1200.0 mg/kg/injection, schedule: Q01DX001 (oral), vehicle: saline 112 % of control | dose: 1200.0 mg/kg/injection, schedule: Q01DX001 (sc), vehicle: saline 110 % of control | dose: 1200.0 mg/kg/injection, schedule: Q01DX009 (ip), vehicle: saline 98 % of control | dose: 1200.0 mg/kg/injection, schedule: Q01DX009 (oral), vehicle: saline 100 % of control | dose: 1200.0 mg/kg/injection, schedule: Q01DX009 (sc), vehicle: saline 94 % of control | dose: 1200.0 mg/kg/injection, schedule: Q01DX Z (oral), vehicle: saline 104 % of control | dose: 1200.0 mg/kg/injection, schedule: Q## X002 (ip), vehicle: saline 110 % of control | dose: 1200.0 mg/kg/injection, schedule: Q## X003 (ip), vehicle: saline 114 % of control | dose: 1200.0 mg/kg/injection, schedule: Q## X008 (ip), vehicle: saline 123 % of control | dose: 1400.0 mg/kg/injection, schedule: Q01DX001 (ip), vehicle: saline 115 % of control and 116 % of control | dose: 1400.0 mg/kg/injection, schedule: Q07DX Z (ip), vehicle: other 117 % of control | dose: 1600.0 mg/kg/injection, schedule: Q01DX009 (ip), vehicle: saline 92 % of control | dose: 1600.0 mg/kg/injection, schedule: Q01DX Z (oral), vehicle: other 96 % of control | dose: 1600.0 mg/kg/injection, schedule: Q01DX Z (oral), vehicle: saline 98 % of control | dose: 2400.0 mg/kg/injection, schedule: Q01DX001 (oral), vehicle: saline 117 % of control | dose: 2400.0 mg/kg/injection, schedule: Q01DX001 (sc), vehicle: saline 115 % of control | dose: 2400.0 mg/kg/injection, schedule: Q## X002 (ip), vehicle: saline 107 % of control | dose: 2800.0 mg/kg/injection, schedule: Q01DX001 (ip), vehicle: saline 121 % of control | dose: 2800.0 mg/kg/injection, schedule: Q07DX Z (ip), vehicle: other 124 % of control | dose: 3200.0 mg/kg/injection, schedule: Q01DX Z (im), vehicle: saline 87 % of control
active: dose: 12.5 mg/kg/injection, schedule: Q#A X Z (ip), vehicle: saline 160 % of control | dose: 25.0 mg/kg/injection, schedule: Q01DX Z (im), vehicle: saline 150 % of control | dose: 25.0 mg/kg/injection, schedule: Q01DX Z (ip), vehicle: saline 156 % of control | dose: 25.0 mg/kg/injection, schedule: Q#A X Z (ip), vehicle: saline 156 % of control | dose: 32.0 mg/kg/injection, schedule: Q01DX009 (oral), vehicle: saline 151 % of control | dose: 50.0 mg/kg/injection, schedule: Q01DX Z (im), vehicle: saline 156 % of control | dose: 50.0 mg/kg/injection, schedule: Q01DX Z (ip), vehicle: saline 159 % of control | dose: 50.0 mg/kg/injection, schedule: Q01DX Z (oral), vehicle: other 158 % of control | dose: 50.0 mg/kg/injection, schedule: Q#A X Z (ip), vehicle: saline 164 % of control | dose: 100.0 mg/kg/injection, schedule: Q01DX Z (oral), vehicle: saline 151 % of control | dose: 100.0 mg/kg/injection, schedule: Q#A X Z (ip), vehicle: saline 176 % of control | dose: 150.0 mg/kg/injection, schedule: Q01DX Z (oral), vehicle: saline 172 % of control | dose: 200.0 mg/kg/injection, schedule: Q#A X Z (ip), vehicle: saline 176 % of control | dose: 256.0 mg/kg/injection, schedule: Q03HX016 (ip), vehicle: saline 153 % of control | dose: 300.0 mg/kg/injection, schedule: Q01DX Z (oral), vehicle: saline 159 % of control | dose: 304.0 mg/kg/injection, schedule: Q## X024 (ip), vehicle: saline 151 % of control | dose: 400.0 mg/kg/injection, schedule: Q01DX Z (oral), vehicle: other 191 % of control | dose: 400.0 mg/kg/injection, schedule: Q#A X Z (ip), vehicle: saline 158 % of control | dose: 512.0 mg/kg/injection, schedule: Q03HX016 (ip), vehicle: saline 162 % of control | dose: 512.0 mg/kg/injection, schedule: Q03HX016 (oral), vehicle: saline 158 % of control | dose: 600.0 mg/kg/injection, schedule: Q01DX Z (oral), vehicle: saline 154 % of control | dose: 800.0 mg/kg/injection, schedule: Q01DX Z (im), vehicle: saline 151 % of control | dose: 1024.0 mg/kg/injection, schedule: Q03HX016 (ip), vehicle: saline 176 % of control | dose: 1024.0 mg/kg/injection, schedule: Q03HX016 (oral), vehicle: saline 161 % of control | dose: 1200.0 mg/kg/injection, schedule: Q03DX Z (ip), vehicle: other 158 % of control | dose: 1200.0 mg/kg/injection, schedule: Q## X024 (ip), vehicle: saline 155 % of control | dose: 2048.0 mg/kg/injection, schedule: Q03HX016 (ip), vehicle: saline 174 % of control | dose: 2400.0 mg/kg/injection, schedule: Q03DX Z (ip), vehicle: other 151 % of control | dose: 2400.0 mg/kg/injection, schedule: Q## X024 (ip), vehicle: saline 153 % of control
